Experimental findings from ChEMBL document CHEMBL2029213, “Multiple determinants for selective inhibition of apicomplexan calcium-dependent protein kinase CDPK1” (J Med Chem, 2012) are described below.

The target in experiment [1] is Proto-oncogene tyrosine-protein kinase Src (Homo sapiens, UniProt P12931).
Description: Inhibition of human SRC by radiometric assay
Experiment [2] concerns the target Tyrosine-protein kinase ABL1 (Homo sapiens, UniProt P00519).
Description: Inhibition of human ABL by radiometric assay

Chain of Tyrosine-protein kinase ABL1 (P00519 whole entry): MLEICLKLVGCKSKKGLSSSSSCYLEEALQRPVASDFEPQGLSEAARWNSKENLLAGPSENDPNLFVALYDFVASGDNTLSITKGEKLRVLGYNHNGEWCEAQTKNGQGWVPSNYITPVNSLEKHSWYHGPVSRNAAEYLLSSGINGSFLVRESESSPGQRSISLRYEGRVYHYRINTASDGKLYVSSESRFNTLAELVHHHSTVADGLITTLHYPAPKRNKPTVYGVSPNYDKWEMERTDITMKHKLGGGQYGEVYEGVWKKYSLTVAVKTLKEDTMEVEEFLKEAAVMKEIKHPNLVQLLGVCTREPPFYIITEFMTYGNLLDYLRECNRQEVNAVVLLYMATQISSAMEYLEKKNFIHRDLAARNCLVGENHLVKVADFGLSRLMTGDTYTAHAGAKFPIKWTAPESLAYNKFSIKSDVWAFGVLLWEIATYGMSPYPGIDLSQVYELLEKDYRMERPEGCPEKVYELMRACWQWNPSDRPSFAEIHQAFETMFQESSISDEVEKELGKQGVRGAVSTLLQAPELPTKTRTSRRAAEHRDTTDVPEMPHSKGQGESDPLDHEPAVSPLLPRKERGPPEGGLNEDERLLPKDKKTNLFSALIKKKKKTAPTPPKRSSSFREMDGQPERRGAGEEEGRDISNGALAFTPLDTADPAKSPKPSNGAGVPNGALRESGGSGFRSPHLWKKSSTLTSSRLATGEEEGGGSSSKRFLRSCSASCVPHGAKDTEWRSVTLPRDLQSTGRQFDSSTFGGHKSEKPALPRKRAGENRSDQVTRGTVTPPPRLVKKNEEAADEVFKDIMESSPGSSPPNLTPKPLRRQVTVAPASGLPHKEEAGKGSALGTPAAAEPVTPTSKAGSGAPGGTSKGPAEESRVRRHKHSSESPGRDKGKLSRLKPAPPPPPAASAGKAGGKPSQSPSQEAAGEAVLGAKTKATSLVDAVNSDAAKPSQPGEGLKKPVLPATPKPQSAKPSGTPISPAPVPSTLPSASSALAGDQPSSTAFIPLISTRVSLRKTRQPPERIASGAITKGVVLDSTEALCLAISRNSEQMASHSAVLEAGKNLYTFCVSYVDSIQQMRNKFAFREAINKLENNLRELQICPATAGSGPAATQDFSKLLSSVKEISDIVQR
Chain of Proto-oncogene tyrosine-protein kinase Src (P12931 2-536 limits assumed): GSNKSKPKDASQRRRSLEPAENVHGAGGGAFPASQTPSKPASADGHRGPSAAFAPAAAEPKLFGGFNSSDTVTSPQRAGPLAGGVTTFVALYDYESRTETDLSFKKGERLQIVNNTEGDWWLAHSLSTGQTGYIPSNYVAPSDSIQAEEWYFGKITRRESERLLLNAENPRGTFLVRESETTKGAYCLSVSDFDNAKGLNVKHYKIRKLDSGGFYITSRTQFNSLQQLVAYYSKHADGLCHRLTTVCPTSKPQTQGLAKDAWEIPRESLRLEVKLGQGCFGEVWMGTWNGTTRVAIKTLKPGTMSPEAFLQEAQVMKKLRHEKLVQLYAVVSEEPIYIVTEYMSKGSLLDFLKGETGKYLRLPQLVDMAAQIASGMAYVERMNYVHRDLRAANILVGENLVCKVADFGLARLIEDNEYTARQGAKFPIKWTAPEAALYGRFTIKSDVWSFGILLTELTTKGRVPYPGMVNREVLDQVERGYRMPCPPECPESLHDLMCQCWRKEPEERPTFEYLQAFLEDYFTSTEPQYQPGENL

A word on the Ki: it is the dissociation constant of the complex between target and ligand, obtained from inhibition or displacement. Take `COc1ccc2cc(-c3nn(CC4CCNCC4)c4ncnc(N)c34)ccc2c1`: the Ki in experiment [1] was more than 20 µM; in experiment [2], more than 15 µM.
The molecule `CC(C)n1nc(-c2cc3c(Cl)cccc3[nH]2)c2c(N)ncnc21` yielded a Ki in experiment [1] of 1.24 µM.
For `COC(=O)Nc1nc2ccc(C(=O)c3ccccc3)cc2[nH]1` [MEBENDAZOLE], the inhibitory constant (Ki) in experiment [2] came to 4.6 µM. This counts as single-digit micromolar.
Take `Nc1ncnc2c1c(-c1cnc3ccccc3c1)nn2CC1CCNCC1`: the Ki in experiment [1] is more than 20 µM; in experiment [2] it was more than 15 µM.
The corresponding values for `Nc1nc2ccc(C(=O)c3ccccc3)cc2n1CC1CCNCC1` are more than 10 µM and more than 10 µM.
The corresponding values for `CCOc1ccc2cc(-c3nn(CC4CCNCC4)c4ncnc(N)c34)ccc2c1` are more than 20 µM and more than 15 µM.
Regarding `Nc1nc2ccc(C(=O)c3ccccc3)cc2[nH]1`, the inhibitory constant (Ki) in experiment [1] is more than 10 µM; in experiment [2], 10 µM.
The corresponding values for `Nc1ncnc2c1cnn2CC1CCNCC1` are more than 10 µM and more than 10 µM.
For `COc1ccc2cc(-c3nn(C(C)C)c4ncnc(N)c34)ccc2c1`, the Ki in experiment [1] is 0.77 µM.
